Patent publication US20250064768A1, “METHODS AND COMPOSITIONS FOR TREATING AGING AND CHRONIC DISEASE” (priority 2021, published 2025)

Assays:
[1] = in vivo; cited from earlier work
[2] = human, in vivo; cited from earlier work
[3] = mouse, in vivo
Protocol: The clinical development of trans-crocetin has been problematic because its oxygen diffusion enhancing effect is transient, due to two key factors. Poor solubility: trans-crocetinate monovalent metal salts such as TSC, as free drugs were designed presumably to overcome the solubility issue associated with crocetin (free acid). Short half-life: TSC half-life is approximately 30 minutes, which in a clinical setting leads to transient effect on oxygen diffusion enhancement.

HUVECs = experiment: Reoxygenation of hypoxic HUVECs (flow cytometry, BioTracker 520 green hypoxia dye); type: cell-based; conditions: HUVECs under hypoxia (1%)
Protocol: The % P02 was assessed based on the readout of the BioTracker 520 green hypoxia dye. (FIG. 1G) Quantification of % P02 based on the flow cytometric data. (FIG. 1H) Quantification of % P02 based on the flow cytometric data of HUVECs incubated with 120 μg/mL LEAF-4L121 over time and (FIG. 11) as a function of various concentrations of LEAF-4L121 at 24 h.
In vitro, we first sought to evaluate the reoxygenation properties of LEAF-4L121 in endothelial cells (HUVECs). The IC50 of LEAF-4L121 in HUVECs was determined after 72 h of treatment by viability assays (CellTiter-Glo, Promega). […] We next incubated HUVECs in hypoxic conditions (1% P02) for 24 h before treatment with either free TC or various concentrations of LEAF-4L121. […] This rapid oxygenation effect of LEAF-4L121 is likely attributed to a biphasic release of TC from the liposomes that includes an initial fast release (approx. 25% in the first 6 h) of some of the payload followed by a more sustained release of TC from the liposomes over a prolonged period.

mouse model of sepsis = conditions: in vitro results and mouse model of sepsis
[4] = Phase 2 clinical study of liposomal trans-crocetin: pharmacokinetics; conditions: across different dosing regimens

Compound | half-life [1] | safety in clinical trials [2] | half-life (t½) [3] | reoxygenation, PO2 (HUVECs; 30 min post-treatment, 5 μg/mL TC) | reoxygenation, PO2 (HUVECs; 3 h after treatment) | reoxygenation activity (mouse model of sepsis) | AUC and Cmax versus body weight [4]
CC(/C=C/C=C(\C)C(=O)[O-])=C\C=C\C=C(C)\C=C\C=C(/C)C(=O)[O-].[Na+].[Na+] [TSC, trans sodium crocetinate] | approximately 30 minutes | no safety concerns | half an hour |  |  |  | 
CC(/C=C/C=C(\C)C(=O)O)=C\C=C\C=C(C)\C=C\C=C(/C)C(=O)O [TC, trans-crocetin] |  |  |  | up to 15 % PO2 | 5 % P02 | demonstrated the reoxygenation activity | stable levels of AUC and Cmax across a wide range of body weights
